Laboratory results reported in PMC6271978, “1H-2,3-Dihydroperimidine Derivatives: A New Class of Potent Protein Tyrosine Phosphatase 1B Inhibitors” (Molecules, 2013).
Entries after “also recorded” stand apart in the source; their conditions may differ.

Assays:
Assay type in all cases: biochemical
LAR = target: T1, LAR (Homo sapiens, UniProt P10586); assay: LAR inhibition, OMFP substrate assay; details: NA = no activity (inhibitory ratio lower than 50% at the dose of 20 μg/mL), PC = Na3VO4
T1 sequence (P10586 1352-1607 limits assumed): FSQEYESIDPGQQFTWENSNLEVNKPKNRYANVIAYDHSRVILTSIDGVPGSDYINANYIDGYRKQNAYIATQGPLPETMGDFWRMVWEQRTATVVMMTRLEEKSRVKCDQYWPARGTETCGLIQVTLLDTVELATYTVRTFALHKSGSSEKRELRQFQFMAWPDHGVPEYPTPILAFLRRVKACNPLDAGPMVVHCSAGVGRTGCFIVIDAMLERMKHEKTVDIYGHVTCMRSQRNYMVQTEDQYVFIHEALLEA
Description: (§1) In addition to potency improvements, we investigated the selectivity of three representative compounds, namely, 1, 46 and 49 against other PTPs (TCPTP, SHP-1, SHP-2, LAR). […] Besides TCPTP, we tested the inhibitory activity of these compounds on other three homogenous enzymes SHP-1, SHP-2, and LAR [25].
A colorimetric assay to measure inhibition against PTP1B and TCPTP was performed in 96-well plates. Briefly, the tested compounds were solubilized in DMSO and serially diluted into concentrations for the inhibitory test. The assays were carried out in a final volume of 100 μL containing 50 mmol/L MOPS, pH 6.5, 2 mmol/L pNPP, 30 nmol/L GST-PTP1B or GST-TCPTP,and 2% DMSO, and the catalysis of pNPP was continuously monitored on a SpectraMax 340 microplate reader at 405 nm for 3 min at 30 °C. The IC50 value was calculated from the nonlinear curve fitting of the percent inhibition [inhibition (%)] vs. the inhibitor concentration using the Equation (1): Inhibition (%) = 100/[1 + (IC50/[I]k)] (1) where k is the Hill coefficient. […] Briefly, the enzymatic activity of the SHP1, SHP2 and LARwere determined at 30 °C by monitoring the dephosphorylation of substrate 3-o-methylfluorescein phosphate (OMFP), product was then detected at a 485 nm excitation wavelength and 530 nm emission wavelength by the EnVision multilabe plate reader (Perkin-Elmer Life Sciences, Boston, MA, USA). […]

PTP1B = target: T2, PTP1B (Homo sapiens, UniProt P18031); assay: Enzyme kinetics: fast-binding and inhibition modality on PTP1B
T2 sequence (P18031 1-435): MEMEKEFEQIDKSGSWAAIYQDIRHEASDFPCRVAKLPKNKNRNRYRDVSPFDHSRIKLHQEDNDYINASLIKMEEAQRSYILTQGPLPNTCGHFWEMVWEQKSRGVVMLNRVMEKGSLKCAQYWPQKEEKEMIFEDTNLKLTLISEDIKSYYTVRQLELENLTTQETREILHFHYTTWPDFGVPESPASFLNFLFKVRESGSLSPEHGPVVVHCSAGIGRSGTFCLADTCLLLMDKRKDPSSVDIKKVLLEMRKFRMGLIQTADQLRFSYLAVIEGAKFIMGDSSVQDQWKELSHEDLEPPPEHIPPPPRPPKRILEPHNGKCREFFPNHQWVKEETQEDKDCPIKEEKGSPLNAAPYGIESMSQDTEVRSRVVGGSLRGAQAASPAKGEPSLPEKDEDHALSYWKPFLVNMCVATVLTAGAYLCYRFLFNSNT
Description: A kinetic study was performed in order to identify the inhibitory mechanism of compound 46 (Figure 2), using the reported enzyme kinetics assays.
To characterize the inhibitor of PTP1B, the assay was carried out in a 100 μL system containing 50 mmol/L MOPS, pH 6.5, 14 nmol/L PTP1B, pNPP in 2-fold dilution from 80 mmol/L, and different concentrations of the inhibitor. […] (2) where Km is the Michaelis constant, v is the initial rate, Vmax is the maximum rate, and [S] is the substrate concentration. The Ki value was obtained by the linear replot of apparent Km/Vmax (slope) from the primary reciprocal plot versus the inhibitor concentration [I] according to the equation Km/Vmax = 1 + [I]/Ki.

SHP-2 = target: T3, SHP-2 (Homo sapiens, UniProt Q06124); assay: SHP-2 inhibition, OMFP substrate assay
T3 construct: made in house
T3 sequence (Q06124 1-593): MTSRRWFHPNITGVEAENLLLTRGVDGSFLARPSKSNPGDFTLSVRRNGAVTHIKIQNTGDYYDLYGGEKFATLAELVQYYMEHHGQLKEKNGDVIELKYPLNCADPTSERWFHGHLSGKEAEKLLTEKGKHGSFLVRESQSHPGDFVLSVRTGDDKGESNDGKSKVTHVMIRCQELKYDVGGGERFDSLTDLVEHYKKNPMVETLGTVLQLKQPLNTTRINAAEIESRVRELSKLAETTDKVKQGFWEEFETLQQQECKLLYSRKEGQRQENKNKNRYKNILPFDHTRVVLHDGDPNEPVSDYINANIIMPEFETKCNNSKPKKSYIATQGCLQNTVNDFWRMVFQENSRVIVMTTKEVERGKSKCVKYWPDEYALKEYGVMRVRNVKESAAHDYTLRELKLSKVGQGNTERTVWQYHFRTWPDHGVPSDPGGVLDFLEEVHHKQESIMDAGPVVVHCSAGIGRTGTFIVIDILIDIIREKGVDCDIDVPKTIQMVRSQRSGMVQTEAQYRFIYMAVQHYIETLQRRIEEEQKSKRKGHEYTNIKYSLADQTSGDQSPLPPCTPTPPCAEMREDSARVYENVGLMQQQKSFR
Description: as §1
A colorimetric assay to measure inhibition against PTP1B and TCPTP was performed in 96-well plates. Briefly, the tested compounds were solubilized in DMSO and serially diluted into concentrations for the inhibitory test. The assays were carried out in a final volume of 100 μL containing 50 mmol/L MOPS, pH 6.5, 2 mmol/L pNPP, 30 nmol/L GST-PTP1B or GST-TCPTP,and 2% DMSO, and the catalysis of pNPP was continuously monitored on a SpectraMax 340 microplate reader at 405 nm for 3 min at 30 °C. The IC50 value was calculated from the nonlinear curve fitting of the percent inhibition [inhibition (%)] vs. the inhibitor concentration using the Equation (1): Inhibition (%) = 100/[1 + (IC50/[I]k)] (1) where k is the Hill coefficient. To study the inhibition on the other PTPase family members, SHP1, SHP2 and LAR were prepared and assays were performed according to procedures described previously. Briefly, the enzymatic activity of the SHP1, SHP2 and LARwere determined at 30 °C by monitoring the dephosphorylation of substrate 3-o-methylfluorescein phosphate (OMFP), product was then detected at a 485 nm excitation wavelength and 530 nm emission wavelength by the EnVision multilabe plate reader (Perkin-Elmer Life Sciences, Boston, MA, USA). The assays were carried out in a final volume of 50 μL containing 50 mmol/L MOPS, pH 6.8, 10 μmol/L OMFP, 20 nmol/L recombinant enzyme, 2 mmol/L dithiothreitol , 1 mmol/L EDTA, and 2% DMSO. The initial rate of the dephosphorylation was presented by the early linear region of the enzymatic reaction kinetic curve, the inhibitory activity of the compound was continuously monitored.

O=C(O)CNC(=O)c1ccc(C2Nc3cccc4cccc(c34)N2)nc1 [Compound 46]
IC50 LAR (LAR): no visible activities | inhibition modality toward PTP1B (PTP1B; Lineweaver-Burk plot, increased Km, unchanged Vmax, pNPP substrate): competitive inhibitor; also recorded: Typical competitive inhibition | binding behaviour of inhibition of PTP1B (time dependence) (PTP1B; preincubation of PTP1B with compound on ice for different times): fast-binding inhibition | IC50 (SHP-2; OMFP substrate, means ± SD of three replications, PC = Na3VO4): 5.95 ± 0.29 µM | selectivity for PTP1B over SHP-2 (SHP-2; from IC50 values): about 9 fold
